{
  "source": "patent US20230277630A1",
  "about": "“METHODS AND COMPOSITIONS FOR TREATING AMYOTROPHIC LATERAL SCLEROSIS” (Amylyx Pharmaceuticals, Inc., priority 2022, published 2023)",
  "key": {"[1]": {"molecular_target": "T1, BCRP (Homo sapiens, UniProt Q9UNQ0)", "T1 sequence (Q9UNQ0 1-655)": "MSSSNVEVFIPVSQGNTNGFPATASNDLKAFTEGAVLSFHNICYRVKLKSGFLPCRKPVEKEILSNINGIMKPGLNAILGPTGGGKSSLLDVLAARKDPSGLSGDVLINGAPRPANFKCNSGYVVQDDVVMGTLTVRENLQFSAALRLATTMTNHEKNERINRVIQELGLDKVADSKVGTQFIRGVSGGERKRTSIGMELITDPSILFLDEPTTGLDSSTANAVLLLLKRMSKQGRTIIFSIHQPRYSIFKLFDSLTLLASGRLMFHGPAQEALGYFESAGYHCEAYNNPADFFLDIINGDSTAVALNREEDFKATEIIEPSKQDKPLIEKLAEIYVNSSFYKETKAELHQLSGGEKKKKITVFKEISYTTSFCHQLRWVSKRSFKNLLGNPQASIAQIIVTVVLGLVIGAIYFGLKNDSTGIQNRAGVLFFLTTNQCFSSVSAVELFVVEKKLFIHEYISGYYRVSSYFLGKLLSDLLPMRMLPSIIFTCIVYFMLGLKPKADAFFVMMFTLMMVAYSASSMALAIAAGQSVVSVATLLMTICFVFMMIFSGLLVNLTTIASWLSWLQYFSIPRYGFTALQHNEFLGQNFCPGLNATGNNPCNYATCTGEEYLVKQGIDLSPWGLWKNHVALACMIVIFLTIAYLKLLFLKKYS", "experiment": "BCRP IC50 assessment, bidirectional cladribine transport in BCRP-MDCK cells", "description": "(§1) After 30 minutes, the pre-incubation solution was aspirated."}, "[2]": {"molecular_target": "P-gp (Homo sapiens, UniProt P08183)", "sequence (P08183 whole entry)": "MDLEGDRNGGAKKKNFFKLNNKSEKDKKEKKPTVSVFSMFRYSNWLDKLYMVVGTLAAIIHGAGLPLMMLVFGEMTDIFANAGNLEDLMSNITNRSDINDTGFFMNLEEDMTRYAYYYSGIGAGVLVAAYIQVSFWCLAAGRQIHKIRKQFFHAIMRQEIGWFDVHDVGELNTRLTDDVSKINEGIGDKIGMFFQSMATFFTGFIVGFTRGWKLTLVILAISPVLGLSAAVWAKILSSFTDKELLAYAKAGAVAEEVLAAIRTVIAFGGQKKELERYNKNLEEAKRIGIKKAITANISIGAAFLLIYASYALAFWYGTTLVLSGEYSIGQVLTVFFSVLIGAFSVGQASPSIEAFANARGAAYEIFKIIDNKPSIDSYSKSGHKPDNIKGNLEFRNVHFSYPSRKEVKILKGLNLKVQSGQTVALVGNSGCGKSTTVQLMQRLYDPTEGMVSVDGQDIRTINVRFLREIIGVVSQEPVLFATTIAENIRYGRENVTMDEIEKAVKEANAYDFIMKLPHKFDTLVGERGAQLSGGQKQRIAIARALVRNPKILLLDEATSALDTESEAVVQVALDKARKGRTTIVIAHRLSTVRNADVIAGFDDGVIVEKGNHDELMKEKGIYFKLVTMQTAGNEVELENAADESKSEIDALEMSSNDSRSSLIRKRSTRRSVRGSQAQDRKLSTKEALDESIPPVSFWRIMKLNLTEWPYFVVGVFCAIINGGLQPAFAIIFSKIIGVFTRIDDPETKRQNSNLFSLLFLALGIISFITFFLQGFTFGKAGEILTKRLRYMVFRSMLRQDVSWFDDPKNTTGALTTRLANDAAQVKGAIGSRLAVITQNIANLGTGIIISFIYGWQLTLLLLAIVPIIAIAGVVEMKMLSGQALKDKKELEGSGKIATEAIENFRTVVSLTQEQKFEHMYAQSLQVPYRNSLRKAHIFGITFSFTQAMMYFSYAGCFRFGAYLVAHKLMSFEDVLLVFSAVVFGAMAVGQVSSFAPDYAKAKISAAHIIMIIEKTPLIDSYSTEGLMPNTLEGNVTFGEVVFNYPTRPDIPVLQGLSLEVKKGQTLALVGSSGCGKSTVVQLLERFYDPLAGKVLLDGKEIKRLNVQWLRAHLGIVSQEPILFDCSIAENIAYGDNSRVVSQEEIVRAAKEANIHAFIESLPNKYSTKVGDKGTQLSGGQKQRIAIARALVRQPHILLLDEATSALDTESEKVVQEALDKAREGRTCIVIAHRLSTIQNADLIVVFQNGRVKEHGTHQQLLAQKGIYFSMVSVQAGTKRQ", "experiment": "P-gp IC50 assessment, bidirectional digoxin transport in C2BBe1 cells", "description": "as §1"}, "[3]": {"molecular_target": "T2, OCT2 (Homo sapiens, UniProt O15244)", "T2 sequence (O15244 1-555)": "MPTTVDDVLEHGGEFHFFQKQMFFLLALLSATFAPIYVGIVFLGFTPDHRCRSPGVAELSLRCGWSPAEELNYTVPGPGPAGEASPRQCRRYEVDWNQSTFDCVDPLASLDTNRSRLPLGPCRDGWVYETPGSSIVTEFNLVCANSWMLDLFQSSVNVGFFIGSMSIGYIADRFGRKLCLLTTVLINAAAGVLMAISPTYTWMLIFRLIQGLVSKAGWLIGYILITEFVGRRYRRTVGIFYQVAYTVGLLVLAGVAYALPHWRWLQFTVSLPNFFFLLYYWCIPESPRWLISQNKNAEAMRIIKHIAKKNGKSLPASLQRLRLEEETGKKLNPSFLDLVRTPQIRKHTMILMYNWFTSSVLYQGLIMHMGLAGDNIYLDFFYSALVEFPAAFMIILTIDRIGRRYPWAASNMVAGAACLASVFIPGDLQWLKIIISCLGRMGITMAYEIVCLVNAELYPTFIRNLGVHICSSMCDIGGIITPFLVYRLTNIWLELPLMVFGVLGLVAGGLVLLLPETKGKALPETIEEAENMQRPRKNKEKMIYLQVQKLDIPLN"}, "[4]": {"molecular_target": "T3, OATP1B1 (Homo sapiens, UniProt Q9Y6L6)", "T3 sequence (Q9Y6L6 1-691)": "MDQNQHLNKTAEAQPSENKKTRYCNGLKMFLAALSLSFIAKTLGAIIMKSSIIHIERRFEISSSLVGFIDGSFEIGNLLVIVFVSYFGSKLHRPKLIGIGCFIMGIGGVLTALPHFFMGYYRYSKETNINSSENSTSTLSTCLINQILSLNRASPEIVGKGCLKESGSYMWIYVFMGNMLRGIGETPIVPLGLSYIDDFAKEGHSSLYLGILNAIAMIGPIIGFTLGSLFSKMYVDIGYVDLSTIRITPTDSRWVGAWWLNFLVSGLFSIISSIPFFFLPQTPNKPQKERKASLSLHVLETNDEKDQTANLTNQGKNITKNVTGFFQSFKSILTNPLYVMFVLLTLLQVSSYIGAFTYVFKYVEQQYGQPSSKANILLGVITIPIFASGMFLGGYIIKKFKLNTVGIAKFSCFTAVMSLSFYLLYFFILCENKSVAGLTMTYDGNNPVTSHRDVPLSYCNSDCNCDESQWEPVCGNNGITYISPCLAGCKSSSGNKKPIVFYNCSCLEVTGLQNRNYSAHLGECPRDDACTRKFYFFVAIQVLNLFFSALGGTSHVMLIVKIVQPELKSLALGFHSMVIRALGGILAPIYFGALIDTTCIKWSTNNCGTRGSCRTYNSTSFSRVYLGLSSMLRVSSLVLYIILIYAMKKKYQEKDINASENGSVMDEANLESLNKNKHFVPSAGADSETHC"}, "[5]": {"molecular_target": "T4, MATE1 (Homo sapiens, UniProt Q96FL8)", "T4 sequence (Q96FL8 1-570)": "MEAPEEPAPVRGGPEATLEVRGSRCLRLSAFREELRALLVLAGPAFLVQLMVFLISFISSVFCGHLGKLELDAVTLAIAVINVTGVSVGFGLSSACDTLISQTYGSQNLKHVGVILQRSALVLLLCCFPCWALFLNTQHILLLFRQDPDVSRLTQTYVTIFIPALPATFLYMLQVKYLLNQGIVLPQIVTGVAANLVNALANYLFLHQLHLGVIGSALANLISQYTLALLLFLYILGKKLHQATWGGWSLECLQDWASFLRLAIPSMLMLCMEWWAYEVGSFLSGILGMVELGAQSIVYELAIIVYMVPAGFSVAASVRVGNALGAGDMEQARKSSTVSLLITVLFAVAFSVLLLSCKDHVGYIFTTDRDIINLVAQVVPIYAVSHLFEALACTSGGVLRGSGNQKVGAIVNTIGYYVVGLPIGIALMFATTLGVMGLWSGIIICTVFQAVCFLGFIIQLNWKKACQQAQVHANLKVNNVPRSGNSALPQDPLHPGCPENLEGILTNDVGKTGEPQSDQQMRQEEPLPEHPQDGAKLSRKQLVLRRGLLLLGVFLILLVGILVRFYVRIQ"}},
  "data": [
    {"compound": "C[C@H](CCC(=O)NCCS(=O)(=O)O)[C@H]1CC[C@H]2[C@@H]3[C@@H](O)C[C@@H]4C[C@H](O)CC[C@]4(C)[C@H]3CC[C@]12C", "note": "[TUDCA, tauroursodeoxycholic acid]", "values": [
      {"measurement": "IC50", "setting": "[1]", "result": "296 to 889", "unit": "µM"},
      {"measurement": "IC50", "setting": "[2]", "result": "222 to 667", "unit": "µM"},
      {"measurement": "IC50", "setting": "[3]", "result": "> 162", "unit": "µM"},
      {"measurement": "IC50", "setting": "[4]", "result": "12.9 to 38.7", "unit": "µM"},
      {"measurement": "IC50", "setting": "[5]", "result": "270 to 810", "unit": "µM"}
    ]},
    {"compound": "O=C(O)CCCc1ccccc1", "note": "[PB, sodium phenylbutyrate]", "values": [
      {"measurement": "IC50", "setting": "[1]", "result": "2390 to 7160", "unit": "µM"},
      {"measurement": "IC50", "setting": "[2]", "result": "1790 to 5370", "unit": "µM"},
      {"measurement": "IC50", "setting": "[3]", "result": "> 14800", "unit": "µM"},
      {"measurement": "IC50", "setting": "[4]", "result": "1210 to 3630", "unit": "µM"},
      {"measurement": "IC50", "setting": "[5]", "result": "24600 to 73900", "unit": "µM"}
    ]}
  ]
}
